Data on two compounds can be found in patent US8124565B2, “Method of protecting a plant propagation material, a plant, and/or plant organs” (priority 2006, dated 2012).

For test [1], the system named is Fusarium graminearum. The test is classed as cell-based. The conditions noted are these: 48 hrs.
The subject of test [2] is Pyrenophora graminea. The test is described as follows: Fungal growth assay, Pyrenophora graminea (microtiter plate, PDB). The conditions noted are these: 72 hrs. In kind it is cell-based.
The subject of another test is Gäumannomyces graminis. As to the kind of experiment: Fungal growth assay, Gäumannomyces graminis (microtiter plate, PDB). The conditions noted are these: 72 hrs. The test is classed as cell-based.
Test [3] has as its system Fusarium graminearum. In kind it is in vivo. The conditions noted are these: seed treatment 20 g/100 kg, corn seeds (cv. Magister) in inoculated soil.
The test system of the next test is Rhizoctonia solani. The test is described as follows: Rhizoctonia solani/cotton (damping off) seed treatment test. The conditions noted are these: seed treatment 200 g/100 kg, cotton seeds in inoculated soil. The test is classed as in vivo. Here is the method:
A-2. Rhizoctonia solani/Cotton (Damping Off on Cotton)
A defined amount of mycelium of R. solani is blended with soil and trays are filled with the inoculated soil. The formulated test compounds are applied to cotton seeds. The treated cotton seeds are then sown into the inoculated soil. Until germination the test is stored at 20° C. and a rel. humidity of 90% in the dark. After germination the test is transferred to 25° C. and a rel. humidity of 70% with a photoperiod of 14 h. The evaluation is done by counting the emerged cotton plants and the number of emerged and diseased plants.

Test [4] concerns Pyrenophora graminea. The test is described as follows: Pyrenophora graminea/barley (stripe disease) seed treatment test. The settings on record: seed treatment 20 g/100 kg, infected winter barley seeds. In kind it is in vivo. The protocol: A-1. Pyrenophora graminea/Barley (Stripe Disease on Barley)
After application of the formulated seed treatment onto P. graminea-infected seeds of winter barley the seeds are sown in trays filled with field soil. The trays are kept in a growth room for 3 weeks at 4° C. After this period the trial is transferred to a greenhouse where a temperature of 12° C. and a 14 hr light period is provided. The following assessments are made: emergence count, final stand count, number of infected plants.

Read-outs that look alike come from different tables or passages of the source.

With `Cn1cc(C(=O)Nc2ccccc2C2CC2C2CC2)c(C(F)F)n1` (stereo not drawn) [Compound of formula A, reference compound], the “Observed control in % (% Cobs)” value with Fusarium graminearum [1] (0.03125 ppm) was found to be 1.6%; in the test on Fusarium graminearum [1] (0.0625 ppm), 2.4%; in the test on Fusarium graminearum [1] (0.125 ppm) it was 8.4%; in the test on Fusarium graminearum [1] (0.25 ppm), 7.8%; in the test with Pyrenophora graminea [2] (0.25 ppm), 0%; in the test with Gäumannomyces graminis (0.5 ppm), 74.8%.
Regarding `Cc1ccc(C2CC(C)(c3cccnc3)N(C)O2)cc1` (stereo not drawn) [Compound of formula I], the values for the activity in the test with Fusarium graminearum [3], in the test with Rhizoctonia solani and in the test on Pyrenophora graminea [4] were 100%, 70% and 100%, respectively. For the same compound, the “Observed control in % (% Cobs)” value was determined as 0% with Fusarium graminearum [1] (0.03125 ppm); 3.5% in the test on Fusarium graminearum [1] (0.0625 ppm); 4.4% in the test on Fusarium graminearum [1] (0.125 ppm); 12.5% in the test on Fusarium graminearum [1] (0.25 ppm); 62.3% with Pyrenophora graminea [2] (0.5 ppm); 26.0% with Gäumannomyces graminis (0.25 ppm).
